Measured values: patent US20230116703A1, “NOVEL ERGOLINES AND METHODS OF TREATING MOOD DISORDERS” (priority 2021, published 2023)
pEC50: −log10 of the molar value. Read-outs that look alike come from different tables or passages of the source.

Columns and labels:
5-HT1B receptor = 5-HT1B receptor (Homo sapiens, UniProt P28222); assay: cAMP accumulation agonist assay at 5-HT1B; format: cell-based; settings: cAMP, agonist; read-out: 5-HT1B EC50
Protocol: Disclosed compounds were tested for agonist activity at several serotonin receptor subtypes (5-HT2A, […], 5-HT2C, and 5-HT1A) using Ca^2+ flux functional assays and the 5-HT1B receptor using a cAMP accumulation assay, with the results summarized in Table 4. […] Potent agonist activity was also observed at the other serotonin receptors tested, although the selectivity profile among the receptors varied across compounds. […]. However, at the same time, the N-propyl compounds were more efficacious agonists at 5-HT2B than the corresponding N-methyl compounds. The selectivity of disclosed compounds for 5-HT2A over 5-HT2C and 5-HT1A was less predictable and varied widely across compounds, ranging from ˜1:6 to ˜20:1 (2C/2A) in the case of 5-HT2C and from ˜1:4 to >100:1 (1A/2A) in the case of 5-HT1A. […] An azetidinyl amide substituent tended to increase potency at 5-HT1A relative to 5-HT2A.
Functional Assay at 5-HT1B. Agonist activity at 5-HT1B was determined using a cAMP accumulation protocol at WuXi AppTec (Hong Kong) Limited according to their standard protocols. Briefly, stably transfected cells were plated in an OptiPlate-384 well plate, incubated at RT for 60 mins, and cAMP standard solution (800 nM, 10 μL) was added to the blank well. Then, 10 μL detection reagent was added to each well, the plate incubated for 60 mins at RT, and the plate read using EnVision.

5-HT1A receptor = target: T1, 5-HT1A receptor (Homo sapiens, UniProt P08908); assay: cell-based
T1 construct: host or cells: CHO cells
T1 sequence (P08908 1-422): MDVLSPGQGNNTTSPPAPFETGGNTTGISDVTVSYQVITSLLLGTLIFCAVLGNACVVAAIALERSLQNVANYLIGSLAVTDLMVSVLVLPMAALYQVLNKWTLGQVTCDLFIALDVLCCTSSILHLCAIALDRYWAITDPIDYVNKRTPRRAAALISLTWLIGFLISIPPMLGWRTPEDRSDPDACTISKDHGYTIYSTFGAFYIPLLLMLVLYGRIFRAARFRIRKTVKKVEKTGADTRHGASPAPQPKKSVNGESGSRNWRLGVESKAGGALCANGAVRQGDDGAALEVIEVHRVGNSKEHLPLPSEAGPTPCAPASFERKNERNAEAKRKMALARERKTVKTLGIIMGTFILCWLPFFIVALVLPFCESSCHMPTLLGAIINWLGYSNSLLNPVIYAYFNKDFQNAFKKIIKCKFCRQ
Protocol: (§1) Functional Assays at 5-HT2A, 5-HT2B, and 5-HT1A. Agonist activity at 5-HT2A, 5-HT2B, and 5-HT1A receptors was determined using a FLIPR Ca^2+ flux assay at WuXi AppTec (Hong Kong) Limited according to their standard protocols. Briefly, stably transfected cells expressing the receptor of interest (HEK293 for 5-HT2A and 5-HT2B; CHO cells for 5-HT1A) were grown and plated in a 384 well plate and incubated at 37° C. and 5% CO2 overnight. A solution of 250 mM probenecid in 1 mL FLIPR assay buffer was prepared fresh. This was combined with a fluorescent dye (Fluo-4 Direct™) to make a final assay concentration of 2.5 mM. […] The fluorescent dye was then added to the assay plate along with assay buffer to a final volume of 40 μL. The cell plate was incubated for 50 min at 37° C. and 5% CO2 and placed into the FLIPR Tetra along with the compound plate. 10 μL of references and compounds were then transferred from the compound plate into the cell plate and the fluorescent signal was read.

5-HT2B receptor = target: T2, 5-HT2B receptor (Homo sapiens, UniProt P41595); assay: cell-based; settings: Ca^2+ flux, agonist; read-out: 5-HT2B EC50
T2 construct: host or cells: HEK293
T2 sequence (P41595 whole entry): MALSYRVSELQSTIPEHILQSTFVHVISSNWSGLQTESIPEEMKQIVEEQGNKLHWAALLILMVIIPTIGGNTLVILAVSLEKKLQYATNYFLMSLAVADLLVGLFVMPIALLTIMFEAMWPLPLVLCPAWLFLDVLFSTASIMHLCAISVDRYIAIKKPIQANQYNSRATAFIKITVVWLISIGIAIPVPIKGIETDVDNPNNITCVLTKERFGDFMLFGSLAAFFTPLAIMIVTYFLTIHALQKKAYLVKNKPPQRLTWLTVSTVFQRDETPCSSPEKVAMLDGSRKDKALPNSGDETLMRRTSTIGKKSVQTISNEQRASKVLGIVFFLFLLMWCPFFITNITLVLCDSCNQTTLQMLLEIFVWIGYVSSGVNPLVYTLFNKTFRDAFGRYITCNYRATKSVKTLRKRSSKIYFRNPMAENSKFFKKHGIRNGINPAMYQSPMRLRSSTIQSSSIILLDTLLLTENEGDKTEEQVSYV
Protocol: as §1

[1] = Metabolic stability in mouse liver microsomes (MLM); format: in vitro ADME; settings: 0.50 mg protein per mL; for t1/2: MLM (CD-1), 1 μM; for microsomal CLint at 1 μM: mouse, pooled mouse liver microsomes, pH 7.4, MLM (CD-1)
Source text: MLM Stability Pooled MLM from CD-1 mice (BIOIVT M00501) were used.

5-HT2A receptor [2] = target: T3, 5-HT2A receptor (Homo sapiens, UniProt P28223); assay: cell-based; format: cell-based; settings: Ca^2+ flux, agonist; read-out: 5-HT2A EC50
T3 construct: host or cells: HEK293
T3 sequence (P28223 whole entry): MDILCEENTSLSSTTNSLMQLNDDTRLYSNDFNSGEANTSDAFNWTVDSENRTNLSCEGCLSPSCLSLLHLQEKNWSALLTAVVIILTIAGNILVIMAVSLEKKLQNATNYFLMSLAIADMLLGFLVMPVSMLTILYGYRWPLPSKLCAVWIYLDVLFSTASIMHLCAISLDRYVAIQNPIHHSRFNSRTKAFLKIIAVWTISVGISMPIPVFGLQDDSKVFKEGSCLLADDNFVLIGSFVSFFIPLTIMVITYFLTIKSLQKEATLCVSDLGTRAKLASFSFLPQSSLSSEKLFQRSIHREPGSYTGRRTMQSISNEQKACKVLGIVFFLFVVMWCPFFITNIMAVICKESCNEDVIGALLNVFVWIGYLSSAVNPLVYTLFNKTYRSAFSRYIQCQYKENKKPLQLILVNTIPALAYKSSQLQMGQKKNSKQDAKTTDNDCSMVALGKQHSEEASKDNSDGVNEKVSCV
Protocol: as §1

5-HT2A receptor [3] = target: T3, 5-HT2A receptor; assay: biochemical; format: binding; settings: 1 nM [^3H]ketanserin, HEK293 stable cell line; read-out: 5-HT2A Receptor Ki (nM) ([^3H]ketanserin)
Protocol: Affinity of the test compounds for the 5-HT2A receptor was determined in radioligand binding experiments with [^3H]ketanserin by WuXi AppTec (Hong Kong) Limited, using methods adapted from the literature and under conditions described in Table 1.

[4] = Metabolic stability in rat liver microsomes (RLM); settings: for t1/2: RLM, 0.50 mg protein per mL; for microsomal CLint at 1 μM: both, rat, pooled rat liver microsomes, pH 7.4
[5] = Metabolic stability in human liver microsomes (HLM); format: in vitro ADME; settings: for t1/2: 1 μM, 0.50 mg protein per mL; for microsomal CLint at 1 μM: both sexes, human, pooled human liver microsomes, pH 7.4, 0.50 mg protein per mL
Source text: HLM Stability. Pooled HLM from adult male and female donors (Corning 452117) were used.

C57BL/6 mice = assay: Head twitch response (HTR) in mice; format: in vivo, mouse; settings: mouse HTR, SC
Protocol: Agonists of the 5-HT2A receptor are well known to induce this effect in rodents and the potency of this HTR is correlated with hallucinogenic potency in humans.
Animals. Adult male C57BL/6 mice, aged 6-8 weeks (body weight 20-25 g) were used in this experiment. Animals were housed under controlled temperatures and 12-hour light/dark cycles (lights on between 07:00-19:00 h), with ad libitum food and water. This study was carried out in strict accordance with the requirements of the Committee for the Purpose of Control and Supervision of Experiments on Animals (CPCSEA), India. All efforts were made to minimize suffering.
Drugs and Drug Administration. Compound 1 was synthesized as described above. It was administered subcutaneously (SC) dissolved in saline vehicle at a volume of 10 mL/kg. Five doses were tested, with n=6 animals/group. Doses were calculated on the basis of the freebase.
Procedure. Mice were administered one dose of the drug and immediately placed into a small open field for behavioral observation. Animals were observed continuously for 20 mins and the number of head twitches (HTs) were counted by an observer blind to the treatment condition.
Statistical Analysis. The data points shown are the mean±standard error of the mean (SEM). Analysis was performed using GraphPad Prism 6. Curves were fit using a non-linear gaussian distribution to calculate ED50 and Emax values.
Additional disclosed compounds were tested in the mouse head twitch response (HTR) assay according to the procedure described in Example 43. […] Lastly, compounds with much larger benzyl and phenethyl substituents on the amine nitrogen (e.g., 10 and 11) were low efficacy in this assay, consistent with their lower maximal efficacy in the arrestin functional assay (see Example 41).

5-HT2A receptor [6] = target: T3, 5-HT2A receptor; assay: PathHunter beta-arrestin recruitment assay at 5-HT2A; format: cell-based
Protocol: The degree of arrestin bias varied substantially across the other compounds tested as well.
Arrestin Functional Assay at 5-HT2A. Recruitment of beta-arrestin was determined using a PathHunter assay at Eurofins DiscoverX (Fremont, Calif.) according to their standard protocols. PathHunter GPCR beta-arrestin assays take advantage of DiscoverX's proprietary Enzyme Fragment Complementation technology. The GPCR is fused in frame with a small enzyme donor fragment ProLink™ (PK) and co-expressed in cells stably expressing a fusion protein of beta-arrestin and the larger, N-terminal deletion mutant of beta-galactosidase. Activation of the GPCR (5-HT2A receptor in this case) stimulates binding of beta-arrestin to the PK-tagged GPCR and forces complementation of the two enzyme fragments, resulting in the formation of an active beta-galactosidase enzyme. This interaction leads to an increase in enzyme activity that can be measured using chemiluminescent PathHunter Detection Reagents. Briefly, PathHunter cells expressing 5-HT2A receptors were seeded in a volume of 20 μL into 384-well plates and incubated at 37° C. for the appropriate time prior to testing. […] Plates were then imaged on a microplate reader and the agonist activity was calculated using the following formula: % Activity=100%×(mean RLU of test sample−mean RLU of vehicle control)/(mean MAX control ligand−mean RLU of vehicle control), where RLU=relative light units.

[7] = Ca^2+ flux, agonist, read-out: 5-HT1A EC50

5-HT1B receptor, sequence (P28222 whole entry): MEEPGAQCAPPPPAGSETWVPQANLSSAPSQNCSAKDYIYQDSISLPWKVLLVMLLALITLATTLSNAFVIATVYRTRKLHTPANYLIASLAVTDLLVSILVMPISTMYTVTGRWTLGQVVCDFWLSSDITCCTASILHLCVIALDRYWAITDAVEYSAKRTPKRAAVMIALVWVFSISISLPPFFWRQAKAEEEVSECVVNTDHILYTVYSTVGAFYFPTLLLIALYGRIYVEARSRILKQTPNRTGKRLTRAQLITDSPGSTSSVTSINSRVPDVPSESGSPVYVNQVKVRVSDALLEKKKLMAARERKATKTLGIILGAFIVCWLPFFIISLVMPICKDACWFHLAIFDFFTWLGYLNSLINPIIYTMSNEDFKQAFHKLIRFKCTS

Row | Structure (SMILES) | pEC50 (5-HT1B receptor) | pEC50 (5-HT1A receptor; [7]) | pEC50 (5-HT2B receptor) | t1/2 [1] | microsomal CLint at 1 μM [1] | pEC50 (5-HT2A receptor [2]) | Ki (5-HT2A receptor [3]) | t1/2 [4] | microsomal CLint at 1 μM [4] | t1/2 [5] | microsomal CLint at 1 μM [5] | ED50 (C57BL/6 mice; 20 min, 20 min observation, curve fit, poor in some cases, read-out: ED50 (95% CI)) | Most Efficacious Dose (C57BL/6 mice) | Emax (95% CI) (C57BL/6 mice; 20 min observation, curve fit, poor in some cases) | pEC50 (5-HT1A receptor) | pEC50 (5-HT2A receptor [6]) | Emax (5-HT2A receptor [6]; 5-HT2A beta-arrestin) | agonist type in arrestin recruitment assay (in words) (5-HT2A receptor [6]; 5-HT2A beta-arrestin) | 5-HT1A % Act @ Max Dose (5-HT1A receptor; Ca^2+ flux, agonist)
1 | CCN(CC)C(=O)[C@@H]1C=C2c3cccc4[nH]cc(c34)C[C@H]2N(Cc2ccccn2)C1 [Compound 22, (6aR,9R)—N,N-diethyl-7-(pyridin-2-ylmethyl)-4,6,6a,7,8,9-hexahydroindolo[4,3-fg]quinoline-9-carboxamide] | 6.07 | 5.11 | < 5.00 | 9.2 min | 150 µL/min/mg | 6.13 | 28.4 nM | 13.2 min | 105 µL/min/mg | 23.8 min | 58.2 µL/min/mg | – | – | – | – | – | – | – | –
2 | C[C@H]1C[C@H](C)N1C(=O)[C@@H]1C=C2c3cccc4[nH]cc(c34)C[C@H]2N(C)C1 [Int11, ((2S,4S)-2,4-dimethylazetidin-1-yl)((6aR, 9R)-7-methyl-4,6,6a,7,8,9-hexahydroindolo[4,3-fg]quinolin-9-yl)methanone] | – | – | 7.02 | 13.9 min | 100 µL/min/mg | 7.43 | 2.22 nM | 54.9 min | 25.3 µL/min/mg | 25.7 min | 53.9 µL/min/mg | 0.0154 mg/kg | 0.1 mg/kg | 10.93 (9.181-12.76) | 8.05 | 8.80 | < 60% | partial agonists | –
3 | CCN(CC)C(=O)[C@@H]1C=C2c3cccc4[nH]cc(c34)C[C@H]2N(Cc2cccc(OC)c2)C1 [Compound 18, (6aR,9R)—N,N-diethyl-7-(3-methoxybenzyl)-4,6,6a,7,8,9-hexahydroindolo[4,3-fg]quinoline-9-carboxamide] | 5.75 | < 5.00 | < 5.00 | 2.6 min | 524 µL/min/mg | 6.64 | 3.41 nM | 5.3 min | 263 µL/min/mg | 13.6 min | 102 µL/min/mg | – | – | – | – | – | – | – | –
4 | CCN(CC)C(=O)[C@@H]1C=C2c3cccc4[nH]cc(c34)C[C@H]2N(CCc2ccc(OC)cc2)C1 [Compound 21, (6aR,9R)—N,N-diethyl-7-(4-methoxyphenethyl)-4,6,6a,7,8,9-hexahydroindolo[4,3-fg]quinoline-9-carboxamide] | 5.56 | < 5.00 | < 5.00 | 1.9 min | 717 µL/min/mg | 6.21 | 1.93 nM | 4.3 min | 323 µL/min/mg | 3.8 min | 368 µL/min/mg | – | – | – | – | – | – | – | 8.2%
5 | CCN(CC)C(=O)[C@@H]1C=C2c3cccc4[nH]cc(c34)C[C@H]2N(CCc2ccccn2)C1 [Compound 23, (6aR,9R)—N,N-diethyl-7-(2-(pyridin-2-yl)ethyl)-4,6,6a,7,8,9-hexahydroindolo[4,3-fg]quinoline-9-carboxamide] | 6.35 | < 5.00 | < 5.00 | 1.8 min | 769 µL/min/mg | 6.29 | 26.6 nM | 4.2 min | 332 µL/min/mg | 7.2 min | 193 µL/min/mg | – | – | – | – | – | – | – | –
